Source: US4897382A, “Organic amide compounds derived from nitrogenous lipids” (priority 1981, dated 1990)

Columns and labels:
[1] = test system: synaptic membranes of the rat cortex; test: Binding of ^3H-GABA on synaptic membranes of the rat cortex (method of Enna and Snyder); settings: for Product bound % (^3H-GABA binding on rat cortex membranes): ^3H-GABA 2.10^-8 M; for in vitro biological activity (GABA binding), in words: summary of Table I
From the text: Table I presents the results of these tests, expressed in percentage of the fixed active product, comparing the in vitro activity of Product 1 with the activities of the individual components which comprise Product 1.

[2] = GABA by itself; cited from earlier work
[3] = background statement; cited from earlier work
[4] = Anticonvulsant effects in rat (isoniazide convulsions); assay type: in vivo
Experimental: The in vivo activity of Product 1 was measured by the method described by Costa et al (E. Costa, A. Guidotti and C. C. Mao; "Evidence for involvement of GABA in the Action of Benzodiazepines: Studies in Rat Cerebellum" in Mechanism of Action of Benzodiazepines; Ed. by E. Costa and P. Greengard, New York, Raven Press. pp. 113-130 (1975)) and by Loescher and Frey (Loesher, W. and Frey, H. H.; "Effect of convulsant and anticonvulsant agents on level and metabolism of gamma-aminobutyric acid in mouse brain"; Naunyn-Schmiedeberg's Arch. Pharmacol. 296, 263-269 (1977)). These tests are based on the known activity of isoniazide to cause convulsions and a lowering of the GABA cerebral levels and the glutamic-decarboxylase enzyme activity.

[5] = mice; cited from earlier work
[6] = General pharmacological activity in vitro and in vivo; settings: tested in vitro and in vivo in laboratory animals
dopamine receptors = target: T1, dopamine receptors (Rattus norvegicus, UniProt P61169); test: Binding of (^3H)-spiroperidole to hypophysis membranes of rat; settings: for binding power / in vitro activity, in words: compared to the parent acid or lipid alone; for activity at 100 µM / activity at 10 µM / activity at 1 µM / activity at 0.1 µM: read-out: Product bound % ((^3H) spiroperidole binding to hypophysis membranes), (^3H) spiroperidole 2.10^-9 M (2 nM); for activity at 100 µM: test substance 10^-4 M; for activity at 10 µM: test substance 10^-5 M; for activity at 1 µM: test substance 10^-6 M; for activity at 0.1 µM: test substance 10^-7 M
T1 construct: on hypophysis sinaptosomal rat membranes; from tissue; host or cells: rat hypophysis (pituitary), synaptosomal membranes
T1 sequence (P61169 whole entry): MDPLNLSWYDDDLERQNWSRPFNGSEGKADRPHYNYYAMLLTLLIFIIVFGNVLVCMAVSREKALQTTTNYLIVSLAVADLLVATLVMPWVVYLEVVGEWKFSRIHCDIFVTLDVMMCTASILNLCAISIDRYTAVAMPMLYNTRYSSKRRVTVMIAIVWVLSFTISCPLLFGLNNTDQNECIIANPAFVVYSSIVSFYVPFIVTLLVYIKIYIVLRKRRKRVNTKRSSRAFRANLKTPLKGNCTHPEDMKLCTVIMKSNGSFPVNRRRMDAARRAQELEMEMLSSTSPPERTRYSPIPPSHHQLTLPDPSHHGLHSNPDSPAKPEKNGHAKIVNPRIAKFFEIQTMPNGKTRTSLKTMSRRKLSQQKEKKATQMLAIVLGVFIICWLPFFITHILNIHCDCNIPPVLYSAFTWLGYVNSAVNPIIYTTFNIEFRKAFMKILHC
Experimental: The in vitro biological activity was determined by comparative tests measuring the binding power of the labelled spiroperidole (^3 H)-spiroperidole on hypophysis sinaptosomal rat membranes according to the method described by Greese et al (GREESE I., SCHNEIDER R. and SNYDER S. H.; H-spiroperidole labels dopamine receptors in pituitary and brain; Europ. J. Pharmacol. 46, 377-381 (1977)).

prolactin [7] = test: Hypoprolactinemic effect in rats, serum prolactin by RIA, sulpiride-treated (hyperprolactinemic) animals; settings: for inhibition in vivo at 0.5 mg/kg / inhibition in vivo at 5 mg/kg: Rattus norvegicus; for inhibition in vivo at 0.5 mg/kg: read-out: Prolactin Inhibition %, sulpiride 10 γ/kg + 0.5 mg/kg test substance; for inhibition in vivo at 5 mg/kg: read-out: Prolactin Inhibition %, sulpiride 10 γ/kg + 5.0 mg/kg test substance
prolactin [8] = test: Hypoprolactinemic effect in rats, serum prolactin by RIA, at the circadian peak at 4 p.m.; settings: for Prolactin / inhibition in vivo at 0.5 mg/kg / inhibition in vivo at 5 mg/kg / Prolactin Inhibition %: circadian peak at 4 p.m.; for inhibition in vivo at 0.5 mg/kg / inhibition in vivo at 5 mg/kg: Rattus norvegicus; for inhibition in vivo at 0.5 mg/kg: read-out: Prolactin Inhibition %, 0.5 mg/kg; for inhibition in vivo at 5 mg/kg: read-out: Prolactin Inhibition %, 5.0 mg/kg; for in vivo (hypoprolactinemic) activity, in words: rats, summary statement
[9] = test substance 10^-8 M, 0.01 µM
[10] = isoniazide 160 mg/kg (s.c.) + GABA 8 mg/kg (i.p.)
[11] = isoniazide 160 mg/kg (s.c.) + Product 1 20 mg/kg (i.p.)
[12] = sulpiride 10 γ/kg + 0.5 mg/kg test substance
[13] = sulpiride 10 γ/kg + 5.0 mg/kg test substance
[14] = isoniazide 160 mg/kg (s.c.) + sphingosine 12 mg/kg (i.p.)

| Compound | Product bound % (^3H-GABA binding on rat cortex membranes) ([1]; test substance 10^-4 M, 100 µM) [%] | Product bound % (^3H-GABA binding on rat cortex membranes) ([1]; test substance 10^-5 M, 10 µM) [%] | Product bound % (^3H-GABA binding on rat cortex membranes) ([1]; test substance 10^-6 M, 1 µM) [%] | Product bound % (^3H-GABA binding on rat cortex membranes) ([1]; test substance 10^-7 M, 0.1 µM) [%] | Product bound % (^3H-GABA binding on rat cortex membranes) [1, 9] [%] | action in the central nervous system, in words [6] | binding power / in vitro activity, in words (dopamine receptors) | activity at 100 µM (dopamine receptors) [%] | activity at 10 µM (dopamine receptors) [%] | activity at 1 µM (dopamine receptors) [%] | activity at 0.1 µM (dopamine receptors) [%] | inhibition in vivo at 0.5 mg/kg (prolactin [7]) [%] | inhibition in vivo at 5 mg/kg (prolactin [7]) [%] | Prolactin (prolactin [7]; [12]) [ng/mL] | Prolactin (prolactin [7]; [13]) [ng/mL] | Prolactin (prolactin [8]; 0.5 mg/kg) [ng/mL] | Prolactin (prolactin [8]; 5.0 mg/kg) [ng/mL] | inhibition in vivo at 0.5 mg/kg (prolactin [8]) [%] | inhibition in vivo at 5 mg/kg (prolactin [8]) [%] | in vivo (hypoprolactinemic) activity, in words (prolactin [8]) | other results |
| --- | --- | --- | --- | --- | --- | --- | --- | --- | --- | --- | --- | --- | --- | --- | --- | --- | --- | --- | --- | --- | --- |
| NCCCC(=O)O [GABA, Gamma-aminobutyric acid] | 20 | 20 | 25 | 45 | 90 |  |  |  |  |  |  |  |  |  |  |  |  |  |  |  | in vitro biological activity (GABA binding), in words [1]: activity comparable to that of Product 1; penetration of the encephalic barrier, in words [2]: incapable, by itself, of penetrating the encephalic barrier; in vitro / in vivo activity, in words [3]: active in vitro but relatively inactive in vivo; Latency of the convulsions measured [4, 10]: 3100 ± 156 s; Number of animals in convulsions [4, 10]: 24/30; Number of dead animals [4, 10]: 14; effect when administered in vivo as measured by convulsion tests [5]: ineffective |
| CCCCCCCCCCCCCC=CC(O)C(CO)NC(=O)CCCN (centres unmarked) [Product 1, Gamma-aminobutyrylsphingosine amide] | 20 | 25 | 40 | 60 | 95 | capable of acting directly in the central nervous system |  |  |  |  |  |  |  |  |  |  |  |  |  |  | in vivo (anticonvulsant) activity, in words ([4]; compared to GABA or sphingosine alone): far superior in vivo activity as compared to GABA or sphingosine alone; Latency of the convulsions measured [4, 11]: 4500 ± 330 s; Number of animals in convulsions [4, 11]: 9/30; Number of dead animals [4, 11]: 3 |
| CCCCCCCCCCCCCC=CC(O)C(CO)NC(=O)C1CC2c3cccc4[nH]cc(c34)CC2N(C)C1 (centres unmarked) [Product 3, Dihydrolysergylsphingosine amide] |  |  |  |  |  | capable of acting directly in the central nervous system | significant and far superior, under the same experimental conditions, to that of dihydrolysergic acid or sphingosine alone | 10 | 40 | 90 | 100 | 30 | 60 | 53.7 ± 8.5 | 31.2 ± 2.5 | 38.7 ± 4.7 | 32.2 ± 5.7 | 42 | 52 | significant biological activity |  |
| CCCCCCCCCCCCCCCC(O)C(CO)NC(=O)C1CC2c3cccc4[nH]cc(c34)CC2N(C)C1 (centres unmarked) [Product 15, Dihydrolysergyldihydrosphingosine amide] |  |  |  |  |  | capable of acting directly in the central nervous system | far superior to either dihydrolysergic acid or dihydrosphingosine alone | 20 | 30 | 90 | 100 | 44 | 55 | 48.0 ± 4.0 | 39.0 ± 6.0 | 40.0 ± 5.6 | 31.0 ± 3.4 | 35 | 50 | far superior to either dihydrolysergic acid or dihydrosphingosine alone |  |
| CCCCCCCCCCCCCC=CC(O)C(COC1OC(CO)C(O)C(O)C1O)NC(=O)C1CC2c3cccc4[nH]cc(c34)CC2N(C)C1 (centres unmarked) [Product 16, Dihydrolysergylpsychosine amide] |  |  |  |  |  | capable of acting directly in the central nervous system | far superior to either dihydrolysergic acid or psychosine alone | 25 | 45 | 80 | 100 | 37 | 52 | 51.0 ± 7.0 | 39.0 ± 4.0 | 40.0 ± 7.0 | 31.0 ± 6.0 | 31 | 47 | far superior to either dihydrolysergic acid or psychosine alone |  |
| CCCCCCCCCCCCC/C=C/[C@@H](O)[C@@H](N)CO [sphingosine] | 100 | 100 | 100 | 100 | 100 |  |  | 100 | 100 | 100 | 100 | 0 |  |  |  |  |  | 0 | 0 |  | in vitro biological activity (GABA binding), in words [1]: no biological activity; Prolactin Inhibition % (prolactin [7]; [12]): 0%; Prolactin Inhibition % (prolactin [8]; 0.5 mg/kg): 0%; Prolactin Inhibition % (prolactin [8]; 5.0 mg/kg): 0%; Latency of the convulsions measured [4, 14]: 3700 ± 200 s; Number of animals in convulsions [4, 14]: 20/30; Number of dead animals [4, 14]: 9 |
